US9169255B2, “Caffeinated compounds and compositions for treatment of amyloid diseases and synucleinopathies” (ProteoTech Inc, priority 2011, dated 2015)

Legend:
Format in all cases: biochemical
α-synuclein fibrils = molecular target: T1, α-synuclein fibrils (Homo sapiens, UniProt P37840); test: Thioflavin T fluorometry, disruption of pre-formed α-synuclein fibrils; details: 2-day incubation
T1 construct: purchased rPeptide, Bogart, Calif
Description: In this set of studies, the efficacy of certain compounds provided herein to cause a disassembly/disruption/disaggregation of pre-formed fibrils of Parkinson's disease (i.e. consisting of α-synuclein fibrils) was analyzed. For the studies described below in Parts A and B, 69 μM of α-synuclein (rPeptide, Bogart, Calif.) was first incubated at 37° C. for 4 days in 20 mM sodium acetate buffer at pH 4 with circular shaking (1,300 rpm) to cause α-synuclein aggregation and fibril formation.
In one study, Thioflavin T fluorometry was used to determine the effects of the compounds on α-synuclein fibrils. […] In this assay Thioflavin T binds specifically to fibrillar protein, and this binding produces a fluorescence enhancement at 485 nm that is directly proportional to the amount of fibrils formed.
Following initial α-synuclein fibrilization as described above, the α-synuclein (6.9 μM) mixture was then incubated at 37° C. for 2 days with shaking (200 rpm), either alone, or in the presence of one of the compounds (at test compound:α-synuclein molar ratios of 10:1, 1:1, 0.1:1, and 0.01:1) in phosphate-buffered saline, pH 7.4+0.02% sodium azide. Following 2 days of co-incubation, 50 μl (5 μg) of each incubation mixture was transferred into a 96-well microtiter plate containing 150 μl of distilled water and 50 μl of a Thioflavin T solution (i.e. 500 μM Thioflavin T in 250 mM phosphate buffer, pH 6.8). The final concentration of Thioflavin T reagent is 100 μM in 50 mM phosphate buffer, pH 6.8. The fluorescence was read at 485 nm (444 nm excitation wavelength) using an ELISA plate fluorometer. Subtraction of the signal obtained from a diluted reaction (blank) containing buffer alone or compound alone at a concentration equivalent to that of its corresponding α-synuclein-containing reaction was used to quantitate the amount of Thioflavin T fluorescence in each α-synuclein-containing reaction that is proportional to the protein fibril content in that reaction.

Aβ 1-42 [1] = molecular target: T2, Aβ 1-42 (Homo sapiens, UniProt P05067); test: Thioflavin T fluorometry, inhibition of β-sheet formation of non-fibrillar Aβ 1-42; design: pre-fibrillized human Aβ 1-42 (rPeptide); purchased rPeptide; details: for Thioflavin T fluorometry-% Inhibition: 24 hours
T2 sequence (P05067 672-713 limits assumed): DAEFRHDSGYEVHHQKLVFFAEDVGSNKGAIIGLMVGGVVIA
Description: To test whether the compounds can inhibit β-sheet formation of Aβ, the same assay as described in Example 5 was utilized, but the Aβ was prepared so that it is in a non-fibrillar state at the start of the assay. To achieve this non-fibrillar state, lyophilized human Aβ 1-42 (rPeptide) was dissolved to 1 mg/mL (220 μM) using 2 mM NaOH and the pH was adjusted to 10.5 with small (μL) additions of 1M NaOH. The clear solution was then frozen, re-lyophilized, and dissolved in a buffer containing 9.5 mM phosphate, 137 mM sodium chloride and 2.7 mM potassium chloride (phosphate-buffered saline; PBS) to a concentration of 2 mg/mL (440 μM) Aβ. […] The reactions containing Aβ+test compounds (or Aβ+PBS as a control for Aβ aggregation) were then incubated for 24 hours, the incubation mixtures were diluted 1:20 to 0.05 mg/mL Aβ and 50 μL of each diluted incubation mixture was transferred into a 96-well microtiter plate containing 150 μL of distilled water and 50 μL of a Thioflavin T solution (i.e. 500 μM Thioflavin T in 250 mM phosphate buffer, pH 6.8). The final concentration of Aβ was 2.2 μM and the concentration of Thioflavin T reagent was 100 μM in 50 mM phosphate buffer, pH 6.8. The fluorescence was read at 485 nm (444 nm excitation wavelength) using an ELISA plate fluorometer after subtraction with PBS buffer alone or compound alone, as blank.

Aβ 1-42 [2] = molecular target: T2, Aβ 1-42; test: Circular dichroism (CD) spectroscopy, inhibition of β-sheet formation of Aβ; details: for magnitude of the change of the ellipticity minimum at 218 nm relative to Aβ alone: 24 hours of incubation, at appropriate concentrations; for Circular Dichroism Spectroscopy -% Inhibition: 24 hours
Description: For this purpose, the Aβ reactions that were used in the Thioflavin T fluorometry assay (Part A in this Example) were assessed at 24 hours of aggregation. Aβ alone was also assessed by CD spectral analysis at t=0, prior to aggregation, (t=0, unfolded reference control). After 24 hours, reactions were diluted 20-fold in PBS and a CD spectrum for each reaction was acquired on a Jasco J-810 spectropolarimeter using a 0.1 cm path length cell. All spectra were recorded with a step size of 0.1 nm, a bandwidth of 1 nm, and an Aβ concentration of 0.05 mg/ml. The spectra were trimmed at the shortest wavelength that still provided a dynode voltage less than 600V. The trimmed spectra were then subjected to a data processing routine beginning with noise reduction by Fourier transform followed by subtraction of a blank spectrum (vehicle only without Aβ). These blank corrected spectra were then zeroed at 260 nm and the units converted from millidegrees to specific ellipticity.
Percent β-sheet was determined from processed spectra using the ellipticity minimum value at approximately 218 nm and referencing to a scale normalized to nearly fully folded and unfolded reference values, consistent with previous reports (Ramirez-Alvarado et al., J. Mol. Biol., 273:898-912, 1997; Andersen et al., J. Am. Chem. Soc., 121:9879-9880, 1999). The fully folded reference value was found by performing the described calculation on the spectrum of Aβ fibrillized for 24 hours (complete fibrillization), and assigning this difference the arbitrary value of 100% β-sheet. The unfolded reference was provided by the spectrum from the same sample at the initial time point (t=0) and ascribing the difference found here the arbitrary value of 0% β-sheet. These percent β-sheet values were then used to provide the respective relative % inhibition of β-sheet induced by the compounds at given molar ratio of test compound:Aβ.

[3] = compound:peptide molar ratio 0.01:1
[4] = compound:peptide molar ratio 0.1:1
[5] = compound:peptide molar ratio 1:1
[6] = compound:peptide molar ratio 10:1

| Molecule | Thioflavin T fluorometry-% Inhibition (α-synuclein fibrils; [3]) [%] | Thioflavin T fluorometry-% Inhibition (α-synuclein fibrils; [4]) [%] | Thioflavin T fluorometry-% Inhibition (α-synuclein fibrils; [5]) [%] | Thioflavin T fluorometry-% Inhibition (α-synuclein fibrils; [6]) [%] | Thioflavin T fluorometry-% Inhibition (Aβ 1-42 [1]; compound:Aβ molar ratio 5:1) [%] | Thioflavin T fluorometry-% Inhibition (Aβ 1-42 [1]; compound:Aβ molar ratio 10:1) [%] | magnitude of the change of the ellipticity minimum at 218 nm relative to Aβ alone (Aβ 1-42 [2]) | Circular Dichroism Spectroscopy -% Inhibition (Aβ 1-42 [2]; compound:Aβ molar ratio 0.5:1) [%] | Circular Dichroism Spectroscopy -% Inhibition (Aβ 1-42 [2]; compound:Aβ molar ratio 1:1) [%] | Circular Dichroism Spectroscopy -% Inhibition (Aβ 1-42 [2]; compound:Aβ molar ratio 5:1) [%] | Circular Dichroism Spectroscopy -% Inhibition (Aβ 1-42 [2]; compound:Aβ molar ratio 10:1) [%] | Thioflavin T fluorometry-% Inhibition (Aβ 1-42 [1]; compound:Aβ molar ratio 1:1) [%] | inhibition of β-sheet formation in Aβ (CD) (Aβ 1-42 [2]; test compound:Aβ molar ratios ≧5:1) | inhibition of Aβ aggregation (Thioflavin T fluorometry) (Aβ 1-42 [1]; concentrations tested 50:1, 10:1 and 1:1) |
| --- | --- | --- | --- | --- | --- | --- | --- | --- | --- | --- | --- | --- | --- | --- |
| 1,3-dimethyl-7-(3′,4′-dibenzyloxy)benzyl-8-(3′,4′-dihydroxyphenyl)xanthine [PD-154] | 7 | 10 | 25 | 43 | 0 | 33 |  |  |  |  |  |  |  |  |
| Cn1c(=O)n(Cc2ccc(O)c(O)c2)c(=O)c2c1ncn2Cc1ccc(O)c(O)c1 [PD-151, 3-Methyl-1,7-bis(3′,4′-dihydroxybenzyl)xanthine] | 4 | 15 | 56 | 89 |  | 87 | reduced | 38 | 43 | 66 | 67 | 9 |  |  |
| Cn1cnc2c1c(=O)n(Cc1ccc(O)c(O)c1)c(=O)n2Cc1ccc(O)c(O)c1 [PD-150, 7-Methyl-1,3-bis(3′,4′-dihydroxy)benzylxanthine] | 0 | 0 | 48 | 84 |  | 93 | reduced | 40 | 42 | 69 | 62 | 23 | at least 62% |  |
| Cn1c(=O)c2c(nc(-c3ccc(O)c(O)c3)n2C)n(C)c1=O [PD-153, 1,3,7-trimethyl-8-(3′,4′-dihydroxyoxyphenyl)xanthine] | 7 | 17 | 18 | 37 |  |  | reduced |  |  | 8 | 24 |  |  |  |
| Cn1c(=O)c2c(ncn2Cc2ccc(O)c(O)c2)n(Cc2ccc(O)c(O)c2)c1=O [PD-152] | 0 | 4 | 52 | 86 | 23 | 61 | reduced | 26 | 42 | 35 | 57 |  |  |  |
| Cn1c(=O)c2c(ncn2C)n(C)c1=O [Caffeine, reference compound] |  |  |  |  |  |  | no effect |  |  |  |  |  |  | failed to inhibit |
